{
  "source": "patent US6747011B1",
  "about": "“Antitumor drugs and methods” (A.P. Group, Inc., priority 2003, dated 2004)",
  "origin": "cited, not measured here",
  "details": "alkaline and physiological conditions",
  "data": [
    {"smiles": "COC[C@@H](C[C@H]1O[C@@](O)([C@H](O)[C@@H]2C[C@H](OC)[C@@H](O)CC/C=C(C)/C=C/[C@@H](O[C@@H]3O[C@@H](C)[C@H](OC)[C@@H](O)[C@@H]3O)[C@H](C)/C=C(C)/C=C(C)/C=C(\\C)C(=O)O2)[C@H](C)[C@@H](O)[C@H]1C)OC1C[C@](C)(O)[C@@H](O[C@H]2C[C@@H](OC)[C@H](O)[C@@H](C)O2)[C@H](C)O1", "note": "(stereo partly shown) [Apoptolidin]", "values": [
      {"measurement": "stability, isomerization to isoapoptolidin", "value": "unstable under alkaline and physiological conditions and readily isomerizes to isoapoptolidin"}
    ]}
  ]
}
